# Test results from ChEMBL document CHEMBL1125979, “Phosphinic acid inhibitors of 3-hydroxy-3-methylglutaryl-coenzyme a reductase” (Bioorg Med Chem Lett, 1991).
# Key:
# HepG2 [1] = assay: The compound was tested for inhibition of cholesterol biosynthesis in human hepatoma G2 cell line; format: functional, cell-based
# [2] = target: T1, 3-hydroxy-3-methylglutaryl-coenzyme A reductase (Homo sapiens, UniProt P04035); assay: The inhibitory activity against purified recombinant human HMG-CoA reductase was evaluated
# T1 sequence (P04035 whole entry): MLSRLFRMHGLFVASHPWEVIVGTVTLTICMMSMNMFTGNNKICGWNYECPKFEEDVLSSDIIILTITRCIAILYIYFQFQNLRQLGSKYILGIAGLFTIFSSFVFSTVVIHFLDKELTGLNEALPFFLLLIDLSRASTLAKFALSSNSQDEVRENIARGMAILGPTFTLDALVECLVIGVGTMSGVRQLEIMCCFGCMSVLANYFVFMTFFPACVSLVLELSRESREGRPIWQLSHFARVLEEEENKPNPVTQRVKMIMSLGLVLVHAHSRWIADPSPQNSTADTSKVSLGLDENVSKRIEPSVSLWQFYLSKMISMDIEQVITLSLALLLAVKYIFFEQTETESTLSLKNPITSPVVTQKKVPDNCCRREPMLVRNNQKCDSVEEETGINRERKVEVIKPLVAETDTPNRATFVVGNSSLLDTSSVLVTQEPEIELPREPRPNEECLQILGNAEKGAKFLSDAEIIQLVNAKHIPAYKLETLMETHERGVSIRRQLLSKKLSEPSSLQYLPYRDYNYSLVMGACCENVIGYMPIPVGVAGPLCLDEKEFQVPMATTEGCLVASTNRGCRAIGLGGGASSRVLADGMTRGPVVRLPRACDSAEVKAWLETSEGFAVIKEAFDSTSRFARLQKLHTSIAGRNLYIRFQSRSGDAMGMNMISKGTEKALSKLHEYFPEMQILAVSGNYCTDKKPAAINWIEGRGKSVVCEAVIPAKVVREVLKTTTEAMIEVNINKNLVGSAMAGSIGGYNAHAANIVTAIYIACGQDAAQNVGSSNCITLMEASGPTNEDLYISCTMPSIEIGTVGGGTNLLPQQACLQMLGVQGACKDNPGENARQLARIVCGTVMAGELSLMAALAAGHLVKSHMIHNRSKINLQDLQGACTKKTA
# HepG2 [3] = assay: The compound was tested for inhibition of cholesterol biosynthesis in human hepatoma G2 cell line; showed relatively low potency; format: functional, cell-based
IC50 (HepG2 [1]),Ki [2],IC50 (HepG2 [3]),Compound
100 nM,–,–,COC(=O)CC(O)CP(=O)(O)CCc1c(Cl)cc(Cl)cc1OCc1ccccc1 (stereo not given)
100 nM,–,–,CC(C)(C)C(=O)OCOC(=O)CC(O)CP(=O)(CCc1c(Cl)cc(Cl)cc1OCc1ccccc1)OCOC(=O)C(C)(C)C (stereo not given)
–,3 nM,–,O=C(O)C[C@H](O)C[C@H](O)CCc1c(Cl)cc(Cl)cc1OCc1ccccc1
–,16 nM,> 1000 nM,O=C(O)C[C@H](O)CP(=O)(O)CCc1c(Cl)cc(Cl)cc1OCc1ccccc1
